Experimental data as given in US20250042848A1, “DEUTERATED FUNCTIONALIZED DERIVATIVES OF alpha-ALANINE, IN [sequence] FOR THE TREATMENT OF NEUROLOGICAL DISEASES” (UNIWERSYTET JAGIELLONSKI, priority 2021, published 2025).

Assays:
[1] = test system: maximal electroshock seizures in mice; assay: Maximal electroshock seizure test (MES); format: in vivo
Experimental: (§1) Initial screening was performed on groups of 4 mice. The mean effective dose (ED50) in a given test and the neurotoxic dose in the rotarod test (TD50) were estimated on the basis of the results obtained on 3-4 groups of animals consisting of 6 animals.
In the maximal electroshock seizure test (MES), the seizures were induced by 500 V, 25 mA electrical stimulus of 0.2 s in duration. The electrical pulse was generated using an electric shock generator (Rodent shocker, Type 221, Hugo Sachs Elektronik, Germany) and delivered to the animal using electrodes placed on the auricles. The study was conducted 30 minutes/2 hours after intraperitoneal administration of the compounds at various doses. During the experiment, the number of animals that experienced a seizure episode in the form of hindlimb tonic extension was counted (Łuszczki, J.J. et al. Fundam. Clin. Pharmacol. 2008, 22, 69-74).
(§2) The ED50 (effective dose) and TD50 (toxic dose) values along with the corresponding 95% confidence limits were calculated based on the Litchfield and Wilcoxon method (Litchfield, J.T.; Wilcoxon, F. J. Pharmacol. Exp. Ther. 1949, 96, 99-113). To perform a statistical evaluation of the results in the scPTZ test, one-way ANOVA variance analysis followed by Dunnett's post hoc test were used. The values were considered statistically significant if p<0.05.

[2] = test system: psychomotor seizures induced by a 32 mA, 6 Hz stimulus in mice; assay: Psychomotor seizure test 6 Hz (32 mA); format: in vivo
Experimental: as §1
(§3) In the psychomotor seizure test (6 Hz test), seizures were induced by a 32 mA and/or 44 mA electrical stimulus of a frequency of 6 pulses per second. An electrical pulse was generated using an electric shock generator (ECT Unit 57800; Ugo Basile, Gemonio, Italy) and delivered to the animal using corneal electrodes. Before starting the test, the eye surface was gently moistened with a solution of local anesthetic (1% lidocaine solution). The study was conducted 30 minutes/2 hours after intraperitoneal administration of the compounds at various doses. An electrical stimulus was delivered continuously for a period of 3 seconds, followed by observation of the animal for a period of 10 seconds. During the experiment, the number of animals with an episode of psychomotor convulsions was counted: motor inhibition, staggering, maintaining a sitting posture, forelimb clonus, twitching of the vibrissae and Straub-tail were observed (Leclercq, K.; Kaminski, R.M. Epilepsia 2015, 56, 310-318).
as §2

CYP3A4 = CYP3A4 (Homo sapiens, UniProt P08684); settings: cited from earlier work
[3] = test system: motor coordination of mice; settings: in vivo; cited from earlier work
[4] = test system: pentylenetetrazole-induced clonic seizures in mice; assay: Subcutaneous pentylenetetrazole (scPTZ) seizure test; format: in vivo; settings: for ED50 scPTZ: mice, in mg/kg; for latency of the first episode of clonic seizures in the scPTZ test: control 740+212.5 seconds
Experimental: as §1
In the subsutaneous pentylenetetrazole seizure test, the animals received pentylenetetrazole at a dose of 100 mg/kg. Test compounds were administered 30 minutes and 2 hours before the experiment. After PTZ administration, the animals were placed individually in transparent cages and observed for a period of 30 minutes/2 hours. During the experiment, the number of animals with a clonic seizure lasting at least 3 s with loss of balance was counted. In addition, the latency of the onset of the first clonic seizure was measured and compared with the control group (Ferreri, G. et al. Pharmacol. Biochem. Behav. 2004, 77, 859-894; Łączkowski, K. et. al. J. Enzym Inhib. Med. Chem. 2016, 31, 1576-1582).
as §2

[5] = test system: mouse liver microsomes (MLMs); assay: In vitro metabolic stability, mouse liver microsomes; format: in vitro ADME; settings: 120-minute incubation with MLMs, NADPH
Experimental: (§4) Metabolic stability assessment was performed using mouse (MLMs) and human (HLMs) liver microsomes purchased from Sigma-Aldrich (St. Louis, MO, USA). The detailed methodology is described in the literature (Kamiński et al. J. Med. Chem. 2015, 58, 5274-5286). The reaction mixture was prepared by mixing […] of the tested compound with mouse or human microsomes (1 mg/mL) in 10 mM TRIS-HCl buffer. The reaction mixture was pre-incubated for 5 min at 37° C. After the initial incubation, 50 μL of the NADPH Regeneration System (Promega, Madison, WI, USA) was added to initiate the reaction. The reaction mixture was then incubated for 120 min at 37° C. 200 μL of cold extra pure methanol was added to complete the reaction. The mixture was then centrifuged at 14,000 g for 15 min and the supernatants were analyzed using a Waters ACQUITY™ TQD LC/MS system with a TQ detector (Waters, Milford, USA). Each experiment was performed in triplicate.

CYP2D9 = settings: cited from earlier work
[6] = test system: spontaneous locomotor activity of mice; settings: mouse, in vivo; cited from earlier work
[7] = test system: psychomotor seizures induced by a 44 mA, 6 Hz stimulus in mice; assay: Psychomotor seizure test 6 Hz (44 mA); format: in vivo; settings: in mg/kg
Experimental: as §1, §3, §2

[8] = test system: human liver microsomes (HLMs); assay: In vitro metabolic stability, human liver microsomes; format: in vitro ADME; settings: 120-minute incubation with HLMs
Experimental: as §4

[9] = test system: motor coordination of mice; assay: Rotarod test (motor coordination, acute neurotoxicity); format: in vivo; settings: in mg/kg
Experimental: as §1
The effect of the tested compounds on motor coordination was assessed in the rotarod test (May Commat, RR 0711 RotaRod, Turkey). The day before the actual experiment, the mice were trained on a rod rotating at 10 revolutions per minute (rpm) for 3 minutes. The experiment was performed 30 minutes and 2 hours after administration of the compounds. The motor coordination of the animals was tested at the speed of the rotating rod: 10 rpm for 60 seconds. The measure of neurotoxicity was the inability to stay on the rod for a given time (Łuszczki, J.J. et al. Eur. Neuropsychopharmacol. 2005, 6, 609-616).
as §2

[10] = test system: human liver microsomes (HLMs); settings: cited from earlier work
[11] = 0.5 h after i.p. administration
[12] = 2.0 h after i.p. administration

Sequence of CYP3A4 (P08684 whole entry): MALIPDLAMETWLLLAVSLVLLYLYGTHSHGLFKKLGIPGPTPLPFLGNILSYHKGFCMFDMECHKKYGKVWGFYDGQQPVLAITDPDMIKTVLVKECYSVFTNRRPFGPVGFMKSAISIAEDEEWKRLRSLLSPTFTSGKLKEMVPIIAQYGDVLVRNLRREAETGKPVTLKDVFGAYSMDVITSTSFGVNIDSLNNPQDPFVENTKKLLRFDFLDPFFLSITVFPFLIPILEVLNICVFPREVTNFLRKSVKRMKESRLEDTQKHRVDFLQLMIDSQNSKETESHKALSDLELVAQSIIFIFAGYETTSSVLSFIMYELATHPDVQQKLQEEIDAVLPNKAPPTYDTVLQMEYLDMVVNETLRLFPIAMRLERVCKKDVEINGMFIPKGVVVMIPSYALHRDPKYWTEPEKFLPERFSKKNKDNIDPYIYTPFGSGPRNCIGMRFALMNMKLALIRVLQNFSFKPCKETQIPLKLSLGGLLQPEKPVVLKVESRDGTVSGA

Compound: C[C@H](C(=O)NCc1ccccc1)N1C(=O)CCC1=O [Compound 1, reference compound]
- ED50 MES [1, 11]: 57.7 mg/kg
- ED50 MES [1, 12]: 95.3 mg/kg
- ED50 6 Hz (32 mA) [2, 11]: 16.8 mg/kg
- ED50 6 Hz (32 mA) [2, 12]: > 130 mg/kg
- interaction with CYP3A4 isoform of cytochrome P-450 (CYP3A4): no interaction
- effect on mouse motor coordination in the rotarod test [3]: minimal effect
- ED50 scPTZ [4, 11]: 30.6
- ED50 scPTZ [4, 12]: >130
- latency of the first episode of clonic seizures in the scPTZ test ([4]; dose 40 mg/kg): 1568+150.9 seconds
- latency of the first episode of clonic seizures in the scPTZ test ([4]; dose 60 mg/kg): 1467+210.8 seconds
- metabolic stability (metabolites in UPLC chromatograms) [5]: no metabolites appeared
- interaction with CYP2D9 isoform of cytochrome P-450 (CYP2D9): no interaction
- sedative effect in spontaneous locomotor activity test on mice [6]: no sedative effect
- ED50 6 Hz (44 mA) [7, 11]: 77.3
- ED50 6 Hz (44 mA) [7, 12]: >200
- metabolic stability [8]: high metabolic stability
- TD50 Rotarod [9, 11]: 236.2
- TD50 Rotarod [9, 12]: >300
- metabolic stability on human microsomes [10]: very high metabolic stability

Compound: [2H]C1([2H])C(=O)N([C@H](C)C(=O)NCc2ccccc2F)C(=O)C1([2H])[2H] [d4-(R)-4, (R)—N-(2-fluorobenzyl)-2-(2,5-dioxopyrrolidin-1-yl-3,3,4,4-d4) propanamide]
- ED50 MES [1, 11]: 20.5 mg/kg
- ED50 MES [1, 12]: 25.3 mg/kg
- ED50 6 Hz (32 mA) [2, 11]: 12.8 mg/kg
- ED50 6 Hz (32 mA) [2, 12]: 19.8 mg/kg
- ED50 6 Hz (44 mA) [7, 11]: 51.6
- ED50 6 Hz (44 mA) [7, 12]: 36.3
- metabolic stability [8]: high metabolic stability
- TD50 Rotarod [9, 11]: 127.2
- TD50 Rotarod [9, 12]: >300

Compound: [2H]C([2H])(NC(=O)[C@@H](C)N1C(=O)C([2H])([2H])C([2H])([2H])C1=O)c1ccccc1 [d6-(R)-5, (R)-2-(2,5-dioxopyrrolidin-1-yl-3,3,4,4-d4)-N-(phenylmethyl-d2) propanamide]
- ED50 MES [1, 11]: 33.4 mg/kg
- ED50 MES [1, 12]: 28.7 mg/kg
- ED50 6 Hz (44 mA) [7, 11]: 85.6
- ED50 6 Hz (44 mA) [7, 12]: 50.8
- metabolic stability [8]: high metabolic stability
- TD50 Rotarod [9, 11]: >100
- TD50 Rotarod [9, 12]: >300

Compound: [2H]C([2H])(NC(=O)[C@@H](C)N1C(=O)C([2H])([2H])C([2H])([2H])C1=O)c1ccccc1F [d6-(R)-7, (R)-2-(2,5-dioxopyrrolidin-1-yl-3,3,4,4-d4)-N-((2-fluorophenyl)methyl-d2) propanamide]
- ED50 6 Hz (32 mA) [2, 11]: 12.5 mg/kg
- ED50 6 Hz (32 mA) [2, 12]: 13.4 mg/kg
- ED50 6 Hz (44 mA) [7, 11]: 25.1
- ED50 6 Hz (44 mA) [7, 12]: 33.5
- metabolic stability [8]: high metabolic stability
- TD50 Rotarod [9, 11]: >100
- TD50 Rotarod [9, 12]: >300

Compound: [2H]c1c([2H])c([2H])c(CNC(=O)[C@@H](C)N2C(=O)C([2H])([2H])C([2H])([2H])C2=O)c([2H])c1[2H] [d9-(R)-2, (2R)-2-(2,5-dioxopyrrolidin-1-yl-3,3,4,4-d4)-N-((phenyl-d5)methyl) propanamide]
- ED50 MES [1, 11]: 45 mg/kg
- ED50 MES [1, 12]: 57.7 mg/kg
- ED50 6 Hz (32 mA) [2, 11]: 18.2 mg/kg
- ED50 6 Hz (32 mA) [2, 12]: 68 mg/kg
- ED50 6 Hz (44 mA) [7, 11]: 78.3
- ED50 6 Hz (44 mA) [7, 12]: 109.8
- metabolic stability [8]: high metabolic stability
- TD50 Rotarod [9, 11]: 165.4
- TD50 Rotarod [9, 12]: >300

Compound: [2H]c1c([2H])c([2H])c(C([2H])([2H])NC(=O)[C@@H](C)N2C(=O)C([2H])([2H])C([2H])([2H])C2=O)c([2H])c1[2H] [d11-(R)-6, (R)-2-(2,5-dioxopyrrolidin-1-yl-3,3,4,4-d4)-N-((phenyl-d5)methyl-d2) propanamide]
- ED50 MES [1, 11]: 29.5 mg/kg
- ED50 MES [1, 12]: 33.8 mg/kg
- ED50 6 Hz (44 mA) [7, 11]: 57.6
- ED50 6 Hz (44 mA) [7, 12]: 70.4
- metabolic stability [8]: high metabolic stability
- TD50 Rotarod [9, 11]: >100
- TD50 Rotarod [9, 12]: >300
